Publication PMC5985834, “A Testosterone Metabolite 19-Hydroxyandrostenedione Induces Neuroendocrine Trans-Differentiation of Prostate Cancer Cells via an Ectopic Olfactory Receptor” (Frontiers in Oncology, 2018)
Where two headings read alike, the source gives them in different places. Where a SMILES comes first, the peptide text is derived from it. [ ]: non-standard residue; d: D form.

How the values were obtained:
OR51E2 [1] = biological target: T1, OR51E2 (Homo sapiens, UniProt Q9H255); experiment: cAMP CRE-luciferase reporter assay in Hana3A cells; assay type: cell-based; details: agonist, M10d medium, read-out: EC50 (potency) /
T1 construct: OR51E2 plasmid transiently transfected into Hana3A cells with CREB-luciferase reporter
T1 sequence (Q9H255 1-320): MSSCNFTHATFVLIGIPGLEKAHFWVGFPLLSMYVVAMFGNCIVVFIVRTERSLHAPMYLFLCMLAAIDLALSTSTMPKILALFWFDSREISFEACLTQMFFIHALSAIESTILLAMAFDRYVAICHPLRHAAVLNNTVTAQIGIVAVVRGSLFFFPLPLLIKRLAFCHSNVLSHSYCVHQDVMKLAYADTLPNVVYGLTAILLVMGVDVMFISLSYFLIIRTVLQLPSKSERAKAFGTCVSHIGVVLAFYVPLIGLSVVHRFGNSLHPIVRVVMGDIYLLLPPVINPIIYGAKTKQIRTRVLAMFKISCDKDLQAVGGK

OR51E2 [2] = biological target: T1, OR51E2; experiment: cAMP CRE-luciferase reporter assay in Hana3A cells; assay type: cell-based; details: agonist, M10d medium, max conc. 10 µM, below the EC50, unreliable
Description: cAMP CRE-luciferase reporter assay in Hana3A cells on OR51E2

`O=C1CCCN1` [2-Pyrrolidinone] was tested, and the EC50 (OR51E2 [1]; max conc. 100 µM) was 1.9 nM.
`C[C@]12CC[C@H]3[C@@H](CCC4=CC(=O)CC[C@@]43CO)[C@@H]1CCC2=O` [19-OH AD, 19-hydroxyandrost-4-ene-3,17-dione] showed an EC50 (OR51E2 [1]; max conc. 10 µM) of 0.15 nM.
For `COc1ccc(NC=O)c(C(=O)CCNC(C)=O)c1` [AFMK], the EC50 (OR51E2 [1]; max conc. 3.16 mM) was 12000 nM.
`C[C@@H](N)C(=O)N[C@H](C)C(=O)O` [D-Alanyl-D-alanine] (H-[dA]-[dA]-OH) was tested, and the EC50 (OR51E2 [1]; max conc. 3.16 mM) was 14000 nM.
For `C[C@]12CC[C@@H]3c4ccc(O)cc4CC[C@H]3[C@@H]1C[C@@H](O)[C@@H]2O` [Estriol], the “EC50 (potency) /” value (OR51E2 [2]) was 53000 nM.
With `O=C(O)C(=O)CO` [Hydroxypyruvic acid] the EC50 (OR51E2 [1]; max conc. 316 µM) was 420 nM.
For `O=C(O)[C@@H](O)CO` [L-Glyceric acid], the EC50 (OR51E2 [1]; max conc. 1 mM) was 1.9 nM.
With `CC(=O)N[C@@H](CCC(=O)O)C(=O)O` [N-Acetylglutamic acid] the EC50 (OR51E2 [1]; max conc. 10 µM) was 0.23 nM.
Work on `CCCCCCCCCCCCCCCC(=O)O` [Palmitic acid] yielded an EC50 (OR51E2 [1]; max conc. 1 mM) of 9.8 nM.
For `Oc1ccc(-c2[o+]c3cc(O)cc(O)c3cc2O)cc1` [Pelargonidin], the EC50 (OR51E2 [1]; max conc. 100 µM) was 0.42 nM.
`COc1cc(CCC(=O)CC(=O)CCc2ccc(O)c(OC)c2)ccc1O` [Tetrahydrocurcumin] was tested, and the EC50 (OR51E2 [1]; max conc. 316 µM) was 570 nM.
Compound `NC(N)=O` [Urea] has an EC50 (OR51E2 [1]; max conc. 10 mM) of 23 nM.
